Reference: ChEMBL document CHEMBL1255518, “Novel pyrrole- and 1,2,3-triazole-based 2,3-oxidosqualene cyclase inhibitors” (Bioorg Med Chem Lett, 2010)

Experiments:
Lanosterol synthase = target: T1, Lanosterol synthase (Homo sapiens, UniProt P48449); assay: Inhibition of OSC
T1 sequence (P48449 whole entry): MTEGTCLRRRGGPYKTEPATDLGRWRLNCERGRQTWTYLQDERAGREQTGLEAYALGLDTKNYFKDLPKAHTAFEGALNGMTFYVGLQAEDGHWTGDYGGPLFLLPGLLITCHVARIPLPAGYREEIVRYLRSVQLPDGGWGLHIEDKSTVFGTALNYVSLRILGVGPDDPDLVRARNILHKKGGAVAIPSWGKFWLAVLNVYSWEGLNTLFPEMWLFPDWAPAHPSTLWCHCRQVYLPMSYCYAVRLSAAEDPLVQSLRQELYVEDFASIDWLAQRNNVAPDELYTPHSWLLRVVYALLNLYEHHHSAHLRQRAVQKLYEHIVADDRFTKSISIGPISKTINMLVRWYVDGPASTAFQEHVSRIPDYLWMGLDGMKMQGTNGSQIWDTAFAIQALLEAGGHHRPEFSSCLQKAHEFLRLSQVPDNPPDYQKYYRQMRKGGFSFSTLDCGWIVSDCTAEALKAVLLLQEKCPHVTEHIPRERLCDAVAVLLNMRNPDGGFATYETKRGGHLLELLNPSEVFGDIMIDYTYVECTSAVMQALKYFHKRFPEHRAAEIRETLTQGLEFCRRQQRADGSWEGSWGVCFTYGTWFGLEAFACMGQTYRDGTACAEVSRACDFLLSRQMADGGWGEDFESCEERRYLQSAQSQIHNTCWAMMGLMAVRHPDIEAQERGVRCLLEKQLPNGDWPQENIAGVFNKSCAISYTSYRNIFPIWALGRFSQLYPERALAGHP

[1] = target: T2, Lanosterol synthase (Homo sapiens) (UniProt P48449); assay: Inhibition of OSC at 20 uM
T2 sequence (whole entry): T1 sequence (P48449 whole entry)

SMILES	IC50 (Lanosterol synthase) [µM]	inhibition [1] [%]
COc1ccc(-n2c(C)cc(C(=O)NCc3ccc(CN(C)C)cc3)c2C)cc1	35.4	–
CCCCCCCCCCCC[N+](C)(C)[O-]	2.15	84
CN(C)Cc1ccc(CNCc2cnn(-c3ccccc3)n2)cc1	1.41	128

Next, values leading:

IC50 (Lanosterol synthase) [µM]	inhibition [1] [%]	SMILES
58.8	–	COc1ccc(-n2c(C)cc(CNC(=O)c3ccc(CN(C)C)cc3)c2C)cc1
12.7	86	COc1ccc(-n2c(C)cc(CNCc3ccc(CN(C)C)cc3)c2C)cc1
